Measurements taken from publication PMC7156458, “Synthetic biology based construction of biological activity-related library of fungal decalin-containing diterpenoid pyrones” (Nature Communications, 2020).

Molecular target: Aβ42 (Homo sapiens, UniProt P05067)
Assay: Th-T (thioflavin-T) assay of Aβ42 aggregation
Assay type: biochemical
Conditions: for Th-T fluorescence, mean of three wells: compound at 50

Aβ42, sequence (P05067 672-713): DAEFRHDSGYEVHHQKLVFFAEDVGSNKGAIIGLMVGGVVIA

In the case of C=C1CC[C@@H]2[C@](C)(CC[C@H]3O[C@H](C=C(C)C)C[C@@]23C)[C@@H]1Cc1c(OC)oc(CO)c(C(=O)OC)c1=O [Compound 21], the “Th-T fluorescence, mean of three wells” value (reading M54 of time course) was 0.2222, the “Th-T fluorescence, mean of three wells” value (reading M55 of time course) was 0.2197 and the “Th-T fluorescence, mean of three wells” value (reading M56 of time course) was 0.2209. For the same compound, the “Th-T fluorescence, mean of three wells” value (reading M57 of time course) was 0.2237, the “Th-T fluorescence, mean of three wells” value (reading M58 of time course) was 0.2252 and the “Th-T fluorescence, mean of three wells” value (reading M59 of time course) was 0.2206. The “Th-T fluorescence, mean of three wells” value (reading M60 of time course) was 0.2276, the “Th-T fluorescence, mean of three wells” value (reading M61 of time course) was 0.2285 and the “Th-T fluorescence, mean of three wells” value (reading M62 of time course) was 0.2296. The “Th-T fluorescence of Aβ42 with compound, mean of three wells (Fig. 7a source data)” value (from here on “Th-T fluorescence of Aβ42 with compound”) (concentration 10, unit not given, time-course reading M129) was 1.701, the “Th-T fluorescence of Aβ42 with compound” value (concentration 10, unit not given, time-course reading M130) was 1.706 and the “Th-T fluorescence of Aβ42 with compound” value (concentration 10, unit not given, time-course reading M131) was 1.73. For the same compound, the “Th-T fluorescence of Aβ42 with compound” value (concentration 10, unit not given, time-course reading M132) was 1.6977, the “Th-T fluorescence of Aβ42 with compound” value (concentration 10, unit not given, time-course reading M133) was 1.7165 and the “Th-T fluorescence of Aβ42 with compound” value (concentration 10, unit not given, time-course reading M134) was 1.726. The “Th-T fluorescence of Aβ42 with compound” value (concentration 10, unit not given, time-course reading M135) was 1.717, the “Th-T fluorescence of Aβ42 with compound” value (concentration 10, unit not given, time-course reading M136) was 1.738 and the “Th-T fluorescence of Aβ42 with compound” value (concentration 10, unit not given, time-course reading M137) was 1.7043. For the same compound, the “Th-T fluorescence of Aβ42 with compound” value (concentration 10, unit not given, time-course reading M138) was 1.717, the “Th-T fluorescence of Aβ42 with compound” value (concentration 10, unit not given, time-course reading M139) was 1.708 and the “Th-T fluorescence of Aβ42 with compound” value (concentration 10, unit not given, time-course reading M140) was 1.723. For the same compound, the “Th-T fluorescence of Aβ42 with compound” value (concentration 10, unit not given, time-course reading M141) was 1.719, the “Th-T fluorescence of Aβ42 with compound” value (concentration 10, unit not given, time-course reading M142) was 1.725 and the “Th-T fluorescence of Aβ42 with compound” value (concentration 10, unit not given, time-course reading M143) was 1.723. The “Th-T fluorescence of Aβ42 with compound” value (concentration 10, unit not given, time-course reading M144) was 1.716, the “Th-T fluorescence of Aβ42 with compound” value (concentration 10, unit not given, time-course reading M145) was 1.741 and the “Th-T fluorescence of Aβ42 with compound” value (concentration 20, unit not given, time-course reading M129) was 0.972. For the same compound, the “Th-T fluorescence of Aβ42 with compound” value (concentration 20, unit not given, time-course reading M130) was 0.9564, the “Th-T fluorescence of Aβ42 with compound” value (concentration 20, unit not given, time-course reading M131) was 0.9524 and the “Th-T fluorescence of Aβ42 with compound” value (concentration 20, unit not given, time-course reading M132) was 0.9585. The “Th-T fluorescence of Aβ42 with compound” value (concentration 20, unit not given, time-course reading M133) was 0.9579, the “Th-T fluorescence of Aβ42 with compound” value (concentration 20, unit not given, time-course reading M134) was 0.9622 and the “Th-T fluorescence of Aβ42 with compound” value (concentration 20, unit not given, time-course reading M135) was 0.9636. The “Th-T fluorescence of Aβ42 with compound” value (concentration 20, unit not given, time-course reading M136) was 0.9565, the “Th-T fluorescence of Aβ42 with compound” value (concentration 20, unit not given, time-course reading M137) was 0.947 and the “Th-T fluorescence of Aβ42 with compound” value (concentration 20, unit not given, time-course reading M138) was 0.9539. For the same compound, the “Th-T fluorescence of Aβ42 with compound” value (concentration 20, unit not given, time-course reading M139) was 0.9666, the “Th-T fluorescence of Aβ42 with compound” value (concentration 20, unit not given, time-course reading M140) was 0.9636 and the “Th-T fluorescence of Aβ42 with compound” value (concentration 20, unit not given, time-course reading M141) was 0.9513. The “Th-T fluorescence of Aβ42 with compound” value (concentration 20, unit not given, time-course reading M142) was 0.9675, the “Th-T fluorescence of Aβ42 with compound” value (concentration 20, unit not given, time-course reading M143) was 0.9558 and the “Th-T fluorescence of Aβ42 with compound” value (concentration 20, unit not given, time-course reading M144) was 0.9694. The “Th-T fluorescence of Aβ42 with compound” value (concentration 20, unit not given, time-course reading M145) was 0.9486, the “Th-T fluorescence of Aβ42 with compound” value (concentration 50, unit not given, time-course reading M129) was 0.5005 and the “Th-T fluorescence of Aβ42 with compound” value (concentration 50, unit not given, time-course reading M130) was 0.4954. The “Th-T fluorescence of Aβ42 with compound” value (concentration 50, unit not given, time-course reading M131) was 0.4987, the “Th-T fluorescence of Aβ42 with compound” value (concentration 50, unit not given, time-course reading M132) was 0.5011 and the “Th-T fluorescence of Aβ42 with compound” value (concentration 50, unit not given, time-course reading M133) was 0.5033. For the same compound, the “Th-T fluorescence of Aβ42 with compound” value (concentration 50, unit not given, time-course reading M134) was 0.5026, the “Th-T fluorescence of Aβ42 with compound” value (concentration 50, unit not given, time-course reading M135) was 0.5014 and the “Th-T fluorescence of Aβ42 with compound” value (concentration 50, unit not given, time-course reading M136) was 0.502. The “Th-T fluorescence of Aβ42 with compound” value (concentration 50, unit not given, time-course reading M137) was 0.5003, the “Th-T fluorescence of Aβ42 with compound” value (concentration 50, unit not given, time-course reading M138) was 0.5022 and the “Th-T fluorescence of Aβ42 with compound” value (concentration 50, unit not given, time-course reading M139) was 0.5032. For the same compound, the “Th-T fluorescence of Aβ42 with compound” value (concentration 50, unit not given, time-course reading M140) was 0.5012, the “Th-T fluorescence of Aβ42 with compound” value (concentration 50, unit not given, time-course reading M141) was 0.504 and the “Th-T fluorescence of Aβ42 with compound” value (concentration 50, unit not given, time-course reading M142) was 0.5037.
